Reference: US20200369728A1, “PEPTIDOMIMETIC MACROCYCLES AND USES THEREOF” (Aileron Therapeutics, Inc., priority 2015, published 2020)

Assays:
[1] = test system: Caspase 3; assay: Caspase 3 detection assay in SJSA1 cells; type: cell-based; settings: SJSA1, 48 h, Caspase 3 activation over DMSO-treated cells
[2] = test system: SJSA-1 cells; assay: Cell lysis by peptidomimetic macrocycles (LDH release); type: cell-based; settings: SJSA-1, 1 h
Summary of the method: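 SJSA-1 cells plated the day before, switched to RPMI with 1% FBS, then exposed 1 h at 37 °C to macrocycle at final 50 μM to 6.25 μM in 0.5% DMSO. LDH released into the supernatant was measured by kit. Controls: 0.5% DMSO (non-lytic), 10 μM melittin and 1% Triton X-100 (lytic).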

Compound | caspase 0.3 μM [1] | caspase 3 μM [1] | caspase 10 μM [1] | caspase 30 μM [1] | 6.25 μM % Lysed cells (1 h LDH) [2] | 25 μM % Lysed cells (1 h LDH) [2] | 50 μM % Lysed cells (1 h LDH) [2] | caspase 1 μM ([1]; 1 μM)
CC(=O)N[C@@H](CC(C)C)C(=O)N[C@H](C(=O)N[C@@H](Cc1ccccc1)C(=O)N[C@]1(C)CCCCCCC=CCCC[C@@](C)(C(=O)N[C@@H](C)C(=O)N[C@@H](C)C(=O)N[C@@H](Cc2ccccc2)C(=O)N[C@H](C)C(N)=O)NC(=O)[C@H](CC(C)C)NC(=O)[C@H](CCC(N)=O)NC(=O)[C@H](C)NC(=O)[C@H](Cc2c[nH]c3ccccc23)NC(=O)[C@H](Cc2ccc(O)cc2)NC(=O)[C@H](CCC(=O)O)NC1=O)[C@@H](C)O (single isomer, unassigned) [compound 218] | 1 | 2 | 8 | 18 | 0% | −4% | 1% | 
CC(=O)N[C@@H](CC(C)C)C(=O)N[C@H](C(=O)N[C@@H](Cc1ccccc1)C(=O)N[C@]1(C)CCCCCCC=CCCC[C@@](C)(C(=O)N[C@@H](C)C(=O)N[C@@H](C)C(=O)N[C@H](C(=O)N[C@H](C)C(N)=O)C(C)C)NC(=O)[C@H](CC(C)C)NC(=O)[C@H](CCC(N)=O)NC(=O)[C@H](C)NC(=O)[C@H](Cc2c[nH]c3ccccc23)NC(=O)[C@H](Cc2ccc(O)cc2)NC(=O)[C@H](CCC(=O)O)NC1=O)[C@@H](C)O (single isomer, unassigned) [compound 221] | 1 | 3 | 6 | 12 | 3% | 3% | 11% | 
CC[C@H](C)[C@H](NC(=O)[C@H](C)NC(=O)[C@H](C)NC(=O)[C@]1(C)CCCC=CCCCCCC[C@@](C)(NC(=O)[C@H](Cc2ccccc2)NC(=O)[C@@H](NC(=O)[C@H](CC(C)C)NC(C)=O)[C@@H](C)O)C(=O)N[C@@H](CCC(=O)O)C(=O)N[C@@H](Cc2c[nH]cn2)C(=O)N[C@@H](Cc2c[nH]c3ccccc23)C(=O)N[C@@H](C)C(=O)N[C@@H](CCC(N)=O)C(=O)N[C@@H](CC(C)C)C(=O)N1)C(=O)N[C@H](C)C(N)=O (single isomer, unassigned) [compound 223] | 1 | 1 | 5 | 18 | −2% | −4% | −1% | 
CC(=O)N[C@@H](CC(C)C)C(=O)N[C@H](C(=O)N[C@@H](Cc1ccccc1)C(=O)N[C@]1(C)CCCCCCC=CCCC[C@@](C)(C(=O)N[C@@H](C)C(=O)N[C@@H](C)C(=O)N[C@@H](C)C(=O)N[C@@H](C)C(=O)N[C@@H](C)C(=O)N[C@@H](C)C(=O)N[C@H](C)C(N)=O)NC(=O)[C@H](CC(C)C)NC(=O)[C@H](CCC(N)=O)NC(=O)[C@H](C)NC(=O)[C@H](Cc2c[nH]c3ccccc23)NC(=O)[C@H](Cc2ccc(O)cc2)NC(=O)[C@H](C)NC1=O)[C@@H](C)O (single isomer, unassigned) [compound 317] | 3 | 9 | 26 | 35 | 0% | 0% | 0% | 4
